Laboratory results: patent publication US8940915B2, “Solvent for recovery of maleic anhydride from a gas stream” (Huntsman Petrochemical LLC, priority 2011, dated 2015)
Values after ≈ are worked out from the molar mass of the structure shown.

Experiments:
[1] = Solubility of fumaric acid in the solvent; format: physicochemical; conditions: fumaric acid dissolved in dibutyl adipate, at 60° C.
[2] = Solubility of maleic anhydride in the solvent; format: physicochemical; conditions: maleic anhydride dissolved in dibutyl adipate, at 60° C.
Solubility in water = format: physicochemical; conditions: at 25° C.

- Solubility of Fumaric Acid [1]: about 0.15 wt % at 60 °C
- Solubility of Maleic Anhydride [2]: >20 wt % at 60 °C
- solubility (Solubility in water): 35 µg/mL (≈ 135 µM)
SMILES: CCCCOC(=O)CCCCC(=O)OCCCC [dibutyl adipate, Di-n-butyl adipate]
- Toxicity (in words) (Toxicity statement): neither dibutyl adipate nor any of its hydrolysis products is toxic
